Assay results reported in ChEMBL document CHEMBL1667779, “Structure-based parallel medicinal chemistry approach to improve metabolic stability of benzopyran COX-2 inhibitors” (Bioorg Med Chem Lett, 2011).

Experiments:
[1] = biological target: Prostaglandin G/H synthase 1 (Homo sapiens, UniProt P23219)
[2] = Metabolic stability of the compound in human liver microsomes assessed as compound remaining at 2 mM after 30 mins by LC/MS analysis; assay type: ADME, Microsome; settings: read-out: Stability
[3] = Metabolic stability of the compound in rat liver microsomes assessed as compound remaining at 2 mM after 30 mins by LC/MS analysis; assay type: ADME, Microsome; settings: read-out: Stability
Homo sapiens = organism: Homo sapiens; assay: Selectivity ratio of IC50 for human COX1 to IC50 for human COX2
[4] = biological target: T1, Prostaglandin G/H synthase 2 (Homo sapiens, UniProt P35354)
T1 sequence (P35354 whole entry): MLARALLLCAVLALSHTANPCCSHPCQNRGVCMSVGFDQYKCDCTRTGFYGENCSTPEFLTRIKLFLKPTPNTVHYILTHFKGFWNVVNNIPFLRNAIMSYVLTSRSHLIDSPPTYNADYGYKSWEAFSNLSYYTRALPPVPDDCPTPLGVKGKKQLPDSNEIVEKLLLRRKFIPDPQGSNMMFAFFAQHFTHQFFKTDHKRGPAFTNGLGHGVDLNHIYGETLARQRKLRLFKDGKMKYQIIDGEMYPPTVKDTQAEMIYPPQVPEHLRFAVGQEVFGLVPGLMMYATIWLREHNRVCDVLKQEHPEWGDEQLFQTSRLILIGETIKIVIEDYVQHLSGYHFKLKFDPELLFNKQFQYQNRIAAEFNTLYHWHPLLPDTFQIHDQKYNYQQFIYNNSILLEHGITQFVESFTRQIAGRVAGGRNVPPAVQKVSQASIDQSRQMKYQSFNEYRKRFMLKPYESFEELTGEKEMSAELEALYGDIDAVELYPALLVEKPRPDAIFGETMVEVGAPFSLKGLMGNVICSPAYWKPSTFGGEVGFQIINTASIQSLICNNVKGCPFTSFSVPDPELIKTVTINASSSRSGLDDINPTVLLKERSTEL

[5] = Half life in human; assay type: ADME, organism-based; settings: in vivo
[6] = Solubility of the compound; assay type: physicochemical; settings: read-out: Stability

Prostaglandin G/H synthase 1, sequence (P23219 whole entry): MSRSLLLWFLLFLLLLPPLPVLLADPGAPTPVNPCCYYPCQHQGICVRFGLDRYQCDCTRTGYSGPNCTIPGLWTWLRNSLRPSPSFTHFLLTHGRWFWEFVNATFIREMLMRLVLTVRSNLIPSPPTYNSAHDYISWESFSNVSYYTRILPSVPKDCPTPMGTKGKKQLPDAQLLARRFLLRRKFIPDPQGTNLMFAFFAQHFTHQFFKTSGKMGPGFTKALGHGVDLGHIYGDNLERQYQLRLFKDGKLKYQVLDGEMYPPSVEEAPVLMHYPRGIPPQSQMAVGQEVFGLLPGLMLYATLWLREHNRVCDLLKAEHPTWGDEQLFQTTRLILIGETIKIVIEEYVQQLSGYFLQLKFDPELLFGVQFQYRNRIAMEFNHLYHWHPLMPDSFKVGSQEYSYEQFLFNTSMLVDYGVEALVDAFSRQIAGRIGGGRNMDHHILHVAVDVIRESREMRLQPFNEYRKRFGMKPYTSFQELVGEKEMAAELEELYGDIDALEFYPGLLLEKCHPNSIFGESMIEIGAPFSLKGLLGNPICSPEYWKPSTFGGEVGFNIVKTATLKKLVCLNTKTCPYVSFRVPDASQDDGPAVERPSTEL

SMILES | IC50 [1] | remaining at 0.5 h [2] | remaining at 0.5 h [3] | Selectivity ratio (Homo sapiens) | IC50 [4] | half-life [5] | solubility [6]
O=C(O)C1=Cc2cc(Cl)cc(-c3ccc(C(=O)O)cc3)c2OC1C(F)(F)F (stereo not drawn) | > 100 µM | 90% | 91% | – | > 100 µM | – | –
CC(C)Cc1ccc(-c2cc(Cl)cc3c2OC(C(F)(F)F)C(C(=O)O)=C3)cc1 (stereo not drawn) | 26.5 µM | 88% | 96% | 2 | 13.4 µM | – | –
COc1ccc(-c2cc(Cl)cc3c2OC(C(F)(F)F)C(C(=O)O)=C3)cc1C (stereo not drawn) | > 100 µM | 84% | 61% | > 295 | 0.339 µM | – | –
NS(=O)(=O)c1ccc(-c2cc(Cl)cc3c2OC(C(F)(F)F)C(C(=O)O)=C3)cc1 (stereo not drawn) | 91.4 µM | – | – | 120 | – | – | –
O=C(O)C1=Cc2cc(Cl)cc(-c3ccccc3)c2OC1C(F)(F)F (stereo not drawn) | 1.54 µM | – | – | 8.2 | 0.188 µM | – | –
Cc1ccc(-c2cc(Cl)cc3c2OC(C(F)(F)F)C(C(=O)O)=C3)cc1F (stereo not drawn) | – | 31% | 55% | 375 | – | – | –
O=C(O)C1=Cc2cc(Cl)cc(Cl)c2OC1C(F)(F)F (stereo not drawn) | – | 100% | 100% | – | – | 15 days | > 30 µM
CS(=O)(=O)Nc1ccc(-c2cc(Cl)cc3c2OC(C(F)(F)F)C(C(=O)O)=C3)cc1 (stereo not drawn) | > 100 µM | 100% | 53% | > 2.5 | 40.1 µM | – | –
CS(=O)(=O)c1ccc(-c2cc(Cl)cc3c2OC(C(F)(F)F)C(C(=O)O)=C3)cc1 (stereo not drawn) | 3.87 µM | – | – | 0.182 | 21.3 µM | – | –

Now from value to compound:

IC50 [1] | remaining at 0.5 h [2] | remaining at 0.5 h [3] | Selectivity ratio (Homo sapiens) | IC50 [4] | half-life [5] | solubility [6] | SMILES
17.7 µM | 18% | 60% | 226 | – | – | – | CCc1ccc(-c2cc(Cl)cc3c2OC(C(F)(F)F)C(C(=O)O)=C3)cc1 (stereo not drawn)
1.39 µM | 93% | 53% | 0.764 | 1.82 µM | – | – | Nc1ccc(-c2cc(Cl)cc3c2OC(C(F)(F)F)C(C(=O)O)=C3)cc1 (stereo not drawn)
0.242 µM | 53% | 57% | 11.4 | 0.0211 µM | – | – | O=C(O)C1=Cc2cc(Cl)cc(-c3ccc(Cl)cc3)c2OC1C(F)(F)F (stereo not drawn)
– | 75% | 47% | – | 0.242 µM | – | – | CCSc1ccc(-c2cc(Cl)cc3c2OC(C(F)(F)F)C(C(=O)O)=C3)cc1 (stereo not drawn)
– | – | – | < 0.007 | > 100 µM | – | – | O=C(O)C1=Cc2cc(Cl)cc(-c3ccc(F)cc3)c2OC1C(F)(F)F (stereo not drawn)
2.44 µM | 93% | 75% | 0.38 | 6.38 µM | – | – | O=C(O)C1=Cc2cc(Cl)cc(-c3ccc(CO)cc3)c2OC1C(F)(F)F (stereo not drawn)
32 µM | 91% | 82% | 90.1 | 0.355 µM | – | – | CCOc1ccc(-c2cc(Cl)cc3c2OC(C(F)(F)F)C(C(=O)O)=C3)cc1 (stereo not drawn)
4.34 µM | 18% | 60% | 42.1 | 0.103 µM | – | – | Cc1ccc(-c2cc(Cl)cc3c2OC(C(F)(F)F)C(C(=O)O)=C3)cc1 (stereo not drawn)
2.91 µM | 91% | 94% | 0.84 | 3.48 µM | – | – | O=C(O)C1=Cc2cc(Cl)cc(-c3ccc(O)cc3)c2OC1C(F)(F)F (stereo not drawn)
